Experimental data taken from ChEMBL document CHEMBL3507680, “University of Dundee, Gates Library screen for HepG2 cell viability”.

Assay: Human HepG2 cell viability assay in 384 well format
Assay type: toxicity, cell-based
Design: dose 125 nL, time 70.5 hour; cytotoxicity at 70.5 h: concentration not given beside the values
Settings: HepG2 cells, read-out: Inhibition

Row | SMILES | cytotoxicity at 70.5 h
1 | Cc1nc[nH]c1CNC1CC(=O)N(CCc2cccc(Cl)c2)C1 (stereo unspecified) | -2.03%
2 | Cc1cc(C(=O)N2C[C@@H]3[C@@H](CN(C)CCc4ccccn4)[C@@H]3C2)c(C)o1 | 25.1%
3 | CCOC(=O)N1CCC(NCC2CCN(c3cnn(C)c(=O)c3)C2)CC1 (stereo unspecified) | -6.78%
4 | CN(C)C(=O)c1ccc2c(c1)nc(N1CC[C@H](O)C1)n2C | 19.5%
5 | Cc1nc(C)n(CCCNc2ncnc3onc(C)c23)n1 | -3.47%
6 | CCn1cnc(NC(=O)N2CCC(c3ccc(Cl)cc3)C2)n1 (stereo unspecified) | 11.3%
7 | Cc1cc(C(=O)N2C[C@@H](CN3CCOCC3)C[C@H](CO)C2)nc(C)n1 | -5.29%
8 | Cc1cc(N2CCC(c3ncc[nH]3)CC2)c2ccccc2n1 | -7.19%
9 | CCc1cc(NCCNC(C)=O)nc(N2CCOCC2)n1 | -13.2%
10 | COc1ccc(C(=O)NCc2cc(N3CCOCC3)ncn2)o1 | 17.5%
11 | CC(C)CN1C(=O)CC[C@H]2CN(C(=O)Cn3ccccc3=O)CC[C@H]21 | -0.419%
12 | O=c1cc(N2CCCCC2)cnn1Cc1noc(C2CCCO2)n1 (stereo unspecified) | -10.8%
13 | O=C(c1ccnc(-n2cnnc2)c1)N1CCCC2(CCNC2)C1 (stereo unspecified) | -9.32%
14 | CCn1nc(C)cc1S(=O)(=O)N1CCC2(CCCN(C(C)C)C2=O)C1 (stereo unspecified) | -1.6%
15 | Cc1[nH]c2c(C)ccc(C)c2c1CC(=O)NCc1csc(N(C)C)n1 | 17.8%
16 | COc1cccc2c1OCC(C(=O)NCc1nc3c(s1)CCCC3)C2 (stereo unspecified) | 21.6%
17 | Cc1cc(OCC(O)c2nc3c([nH]2)CC(C)(C)CNC3=O)ccc1Cl (stereo unspecified) | -12.4%
18 | O=c1cc(C2CCNCC2)nc(CCc2ccccn2)[nH]1 | -2.52%
19 | Cc1csc2c(N3CCC(NCCCc4cnn(C)c4)CC3)ncnc12 | 2.87%
20 | Cn1ccnc1-c1cnn(CC(=O)Nc2ccnn2C)c1 | -3%
21 | O=C(Nc1cnc2n1CCCC2)c1cccc(-n2cnnc2)c1 | -16.8%
22 | Cc1cc(N2CCN(C(=O)c3cnn(C(C)C)c3)CC2)nc(N)n1 | -4.23%
23 | Cc1nn(C)c(C)c1-c1cc(-c2cnn(C)c2C2CC2)c(C#N)c(N)n1 | -12.7%

Row | SMILES | cytotoxicity at 70.5 h
24 | CC(C)c1nc(CN(C)C(=O)CNS(=O)(=O)c2cccs2)no1 | 46.6%
25 | NC(=O)CN1CCC(C(=O)NCC(O)c2cccc(F)c2)CC1 (stereo unspecified) | -10.5%
26 | Fc1cccc(C2CCCCN2Cc2nc(-c3cnccn3)no2)c1 (stereo unspecified) | -1.63%
27 | CSCCCN1C[C@H](NC(=O)c2cnn(C)c2)[C@@H](C2CC2)C1 | -7.31%
28 | CCS(=O)(=O)N1CCCC(c2nccn2Cc2ccccn2)C1 (stereo unspecified) | -2.1%
29 | CCS(=O)(=O)c1ncc(CN2CCCC2)n1CCc1ccccc1 | -12.5%
30 | O=C(NCc1ccccc1-n1cccn1)C1CC2(CCNCC2)CN1 (stereo unspecified) | -1.74%
31 | CC(C)c1noc(C2CCCN2C(=O)CN2CCc3ccccc32)n1 (stereo unspecified) | 23.7%
32 | NC(=O)c1cc2c(nc1CCOCc1ccccc1)CCC2 | -8.58%
33 | CCN1CCN(C(=O)CCC2CCN(C(C)CCC(=O)OC)CC2)CC1 (stereo unspecified) | 8.92%
34 | CSc1ncc(CNCC2(N3CCCCC3)Cc3ccccc3C2)cn1 | -1.26%
35 | O=C(NCc1cn2c(n1)SCC2)c1cn(CCN2CCCCC2)nn1 | 17.2%
36 | CNc1ccnc(N2CCCC(C(=O)c3ccccn3)C2)n1 (stereo unspecified) | 24.1%
37 | Oc1ccc(CCC2CCCCN2Cc2noc(C3CC3)n2)cc1 (stereo unspecified) | 15.5%
38 | O=c1cc(N2CCNCC2)cnn1Cc1noc(C2CCCC2)n1 | -23.8%
39 | COc1cccc(OCCNS(C)(=O)=O)c1 | 1.43%
40 | CCC(=O)N1CCN(c2cc(-n3cnc(C)c3C)nc(C)n2)CC1 | 20.4%
41 | CN(Cc1nccn1C)CC1CCOc2ccccc2C1 (stereo unspecified) | 22.3%
42 | CC(=O)N1CCN(c2cc(-n3cnc(C)c3C)nc(C)n2)CC1 | -6.25%
43 | COCc1nc2ncc3c(=O)n(-c4cccc(OC)c4)ccc3n2n1 | 27.8%
44 | Cc1ccc(C(=O)Nc2ccc(OC3CCN(C)CC3)cc2)c(C)c1 | -5.87%
45 | CCC(=O)Nc1cccc(OCC(=O)N(C)Cc2nccn2CC)c1 | -2.37%
46 | Cc1ccc2nc(N3CCN(CC(=O)NC(C)C)CC3)cc(C)c2c1 | -1.6%

Row | SMILES | cytotoxicity at 70.5 h
47 | Cc1ccc(N2CCN(C(=O)COc3ncccn3)CC2)nn1 | -7.37%
48 | CC(C)c1ccc(OCC(=O)N(C)C)cc1 | -9.35%
49 | Cc1ccc(C)c(C(=O)Nc2ccc(OC3CCN(C)CC3)cc2)c1 | -6.52%
50 | O=C(NCCCc1ccc(F)cc1)c1ccc(N2CCOCC2)cc1 | 2.69%
51 | CCc1noc(-c2cccc(NC(=O)C(C)(C)C)c2)n1 | -11.2%
52 | Cc1cc(C(=O)NC(C)c2nnn[nH]2)c2cccc(C)c2n1 (stereo unspecified) | -0.0967%
53 | FC(F)(F)c1nc(NC2CCCCC2)c2ccccc2n1 | -10.5%
54 | Cc1cc(C)nc(N2C[C@H]3OC(=O)N(CCc4cccc(Cl)c4)[C@H]3C2)n1 | -0.529%
55 | COCc1nc2ncc3c(=O)n(-c4ccc(OC)cc4)ccc3n2n1 | -5.86%
56 | Cc1ccc(N2CC[C@]3(O)CCN(CCN4CCCC4=O)C[C@@H]3C2)nn1 | 0.21%
57 | C[C@@H]1CN(CC(C)(C)N2CCCCC2)C[C@@]1(O)C1CC1 | -1.88%
58 | Cc1ncc(C(=O)NCCOc2ccccc2F)c(C)n1 | 7.2%
59 | COc1ccc(C(C(=O)O)N2CCN(C3CCCCC3)CC2)cc1OC (stereo unspecified) | 13.6%
60 | Cc1ccc(CN2CCN(Cc3ccncc3)[C@@H]3CS(=O)(=O)C[C@@H]32)cc1 | -7.92%
61 | CC(C)[C@H]1CN(CCS(C)(=O)=O)C[C@@H]1NC(=O)c1ccc(=O)[nH]c1 | -3.99%
62 | N#Cc1ccc(C(=O)N2CCC(c3ncc[nH]3)CC2)cn1 | -7.49%
63 | CNc1ncc(CN(C)c2nc(C3CCCC3)nc3c2cnn3C)cn1 | 6.56%
64 | Cn1cccc1C(=O)N1CCC2(CCCN(CC3CC3)C2=O)C1 (stereo unspecified) | -4.86%
65 | COc1nccnc1N1CCN(Cc2ccc3c(c2)OCO3)C(=O)C1 | 20.7%
66 | COc1ccc(CC(=O)N2CC[C@H](CO)[C@H](O)C2)c(OC)c1 | -7.77%
67 | Cc1cc(C(=O)N2CCC(n3cc(CO)nn3)CC2)ccc1F | -5.39%
68 | CN(C)S(=O)(=O)N1CC[C@]2(O)CCN(Cc3cccc(C#N)c3)C[C@@H]2C1 | 9.63%
69 | CCn1c(C2CCNCC2)nn(CCCc2ccccc2)c1=O | -5.09%

Row | SMILES | cytotoxicity at 70.5 h
70 | O=C(CCC(F)(F)F)N1CCCC(c2ncc[nH]2)C1 (stereo unspecified) | 42.3%
71 | O=C1[C@H]2CC[C@H](CN(Cc3nnc(C4CC4)o3)C2)N1Cc1cscn1 | 18.5%
72 | COCCOC1CCN(C(C(=O)O)c2ccc3c(c2)OCO3)CC1 (stereo unspecified) | -6.06%
73 | CC(C)Oc1ccc2c(NC(=O)CN(C)C)nn(CC(F)(F)F)c2c1 | -19%
74 | N#CC1CCN(C(=O)CN2CC(c3ccccc3)CC2=O)CC1 (stereo unspecified) | -4.6%
75 | CN(C)C1CCCN(Cc2cccc(Cn3cccn3)c2)CC1 (stereo unspecified) | -1.58%
76 | CN(C)S(=O)(=O)N1CCCC(CCC(=O)Nc2ccc(Cl)cc2)C1 (stereo unspecified) | 42.2%
77 | O=C(NCc1ccc2c(c1)CCCO2)c1ccccc1C1CCNC1 (stereo unspecified) | -20.6%
78 | CCc1ccc(CN(C)C(=O)c2cnc3c(c2)nc(N)n3CC)nc1 | -8.01%
79 | Cc1cccc2cc(CN3CCC(O)(CN4CCCC4)CC3)c(=O)[nH]c12 | -0.171%
80 | CC(C)=CCN1CCN(Cc2ncc[nH]2)[C@H]2CS(=O)(=O)C[C@H]21 | -4.55%
81 | COCc1ncc(CN2CC[C@@](O)(COC)C(C)(C)C2)cn1 | -18.6%
82 | CN(Cc1n[nH]c(=O)n1Cc1cccs1)S(C)(=O)=O | -0.816%
83 | Cn1cccc1-c1cc(C(=O)NCCCc2csc(N)n2)[nH]n1 | 18.4%
84 | CN(Cc1ccc2nsnc2c1)C(=O)CCc1cc2n(n1)CCCNC2 | -8.3%
85 | Cc1cnc(C)c(-c2cc(O)c3c(c2)CN(Cc2nccs2)CCO3)n1 | -4.63%
86 | CN(C)C(=O)N1CCn2nc(CNC(=O)CCc3ccccn3)cc2C1 | 13.6%
87 | Cc1ccccc1[C@@H]1CN(Cc2ccc(C(F)(F)F)nc2)C[C@H]1C(=O)O | -4.46%
88 | COc1ncccc1CN1CCc2[nH]cnc2C1CCSC (stereo unspecified) | 25.1%
89 | CSc1ncccc1C(=O)N1CCC2(CC1)OCCCC2O (stereo unspecified) | -3.78%
90 | CNC(=O)c1nc(Cn2ncc3ccccc3c2=O)no1 | -3.17%
91 | CCc1cnc(C)nc1NCc1nc(COC)no1 | -6.43%
92 | Cc1cc(C(=O)N[C@H]2CN(CCC(N)=O)C[C@@H]2C2CC2)sc1C | 9.55%

Row | SMILES | cytotoxicity at 70.5 h
93 | CC(=O)Nc1cccc(-c2ccccc2CCN)c1 | -1.04%
94 | C/C=C(\C)CN(CCN1CCOCC1)Cc1ccco1 | -8.08%
95 | CCn1nc(C)c(CCNC(=O)c2cccc(-n3cccn3)c2)c1C | -3.23%
96 | Nc1nc(CN2CCCCC2Cn2cncn2)nc2ccccc12 (stereo unspecified) | 0.228%
97 | CCc1nc(C2CCCN2Cc2cc(C)nc3ccccc23)no1 (stereo unspecified) | 2.62%
98 | CC(C)c1nc(C2CCCN(C(=O)c3ccc(N(C)C)nn3)C2)no1 (stereo unspecified) | -1.24%
99 | COc1ccc(C(=O)N2CCCC2c2noc(C(C)C)n2)nn1 (stereo unspecified) | -4.87%
100 | Cc1nccc(C(=O)N2CCCC2c2noc(C(C)C)n2)n1 (stereo unspecified) | 22.8%
101 | CCOc1ccc(C(=O)N2CCCC(n3nc(C)nc3C)C2)cc1 (stereo unspecified) | 1.39%
102 | Cc1nc(C)n(C2CCCN(C(=O)c3ccc(F)c(F)c3)C2)n1 (stereo unspecified) | -2.21%
103 | CCc1cnc(CN(C(C)=O)C2CCN(Cc3nccn3C)C2)o1 (stereo unspecified) | 1.08%
104 | CC(=O)N(Cc1ncc(C(C)C)o1)C1CCN(CCn2cncn2)C1 (stereo unspecified) | -3.83%
105 | CC(=O)N(Cc1ncc(C(C)C)o1)C1CCN(CC2CCC2)C1 (stereo unspecified) | -3.28%
106 | CCc1nc(C2CCCN2Cc2nnc(C3CCC3)o2)no1 (stereo unspecified) | -2.49%
107 | CC(C)c1ncc2c(n1)CN(Cc1nnc(Cc3ccccc3)o1)CC2 | -5.27%
108 | COc1ccc(C(CNC(=O)c2c(C)noc2C)N(C)C)cc1 (stereo unspecified) | 21.1%
109 | CS(=O)(=O)N1CCN(C(=O)CCn2cccn2)CC1 | -6.72%
110 | O=C(CCn1cccn1)N1CCSCC1 | -4.39%
111 | Cc1ccc(-c2nc(C(=O)N3CCN(C(=O)N(C)C)CC3)cs2)c(C)c1 | -9.21%
